These are literature values, as cited in patent publication US10106508B2, “Quinazoline heterocyclic compound as EGFR kinase inhibitor and preparation and application thereof” (BEIJING SCITECH-MQ PHARMACEUTICALS LIMITED, priority 2015, dated 2018).

Data set [1] has as its target EGFR (Homo sapiens (Human), UniProt P00533). The settings on record: molecular level; read-out: IC50 against EGFR activity; cited from earlier work.
For data set [2], the system named is remaining 81 kinase. The following applies: screening of 85 kinases; selectively inhibits EGFR and 3 other mutants; cited from earlier work.

Chain of EGFR (P00533 25-1210): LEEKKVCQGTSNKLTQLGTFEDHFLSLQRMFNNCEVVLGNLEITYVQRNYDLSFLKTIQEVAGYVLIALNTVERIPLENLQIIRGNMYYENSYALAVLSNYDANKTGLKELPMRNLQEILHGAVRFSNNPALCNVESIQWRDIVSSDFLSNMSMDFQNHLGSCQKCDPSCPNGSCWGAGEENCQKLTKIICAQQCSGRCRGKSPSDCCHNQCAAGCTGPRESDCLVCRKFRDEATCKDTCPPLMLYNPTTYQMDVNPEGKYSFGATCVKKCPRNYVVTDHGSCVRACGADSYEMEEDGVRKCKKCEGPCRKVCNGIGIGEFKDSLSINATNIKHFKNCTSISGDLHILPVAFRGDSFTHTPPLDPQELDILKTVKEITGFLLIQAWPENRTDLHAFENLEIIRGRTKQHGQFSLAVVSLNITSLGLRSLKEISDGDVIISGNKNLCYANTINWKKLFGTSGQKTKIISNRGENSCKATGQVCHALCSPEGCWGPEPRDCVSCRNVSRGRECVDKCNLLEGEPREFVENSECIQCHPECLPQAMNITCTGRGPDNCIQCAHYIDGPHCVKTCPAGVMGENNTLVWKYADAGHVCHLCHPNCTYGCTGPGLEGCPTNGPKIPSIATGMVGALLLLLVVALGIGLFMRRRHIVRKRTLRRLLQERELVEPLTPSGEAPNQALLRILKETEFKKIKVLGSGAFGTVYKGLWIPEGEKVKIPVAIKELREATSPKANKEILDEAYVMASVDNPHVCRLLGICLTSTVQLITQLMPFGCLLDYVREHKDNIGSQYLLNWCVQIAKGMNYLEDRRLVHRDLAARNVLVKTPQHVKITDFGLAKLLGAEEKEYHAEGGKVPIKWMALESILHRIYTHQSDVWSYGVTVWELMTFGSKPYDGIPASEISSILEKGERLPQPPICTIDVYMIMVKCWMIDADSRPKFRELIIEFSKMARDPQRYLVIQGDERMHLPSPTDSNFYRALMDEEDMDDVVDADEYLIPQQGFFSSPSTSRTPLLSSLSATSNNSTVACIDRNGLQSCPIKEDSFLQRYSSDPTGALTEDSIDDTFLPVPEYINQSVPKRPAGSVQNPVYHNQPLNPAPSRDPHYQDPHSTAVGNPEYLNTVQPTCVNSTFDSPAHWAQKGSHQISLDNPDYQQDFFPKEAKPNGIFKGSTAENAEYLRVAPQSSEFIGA

`C#Cc1cccc(Nc2ncnc3cc4c(cc23)OCCOCCOCCO4)c1` [icotinib, Icotinib]: in data set [1], the IC50 is 5 µM. Further, the “effect on the remaining 81 kinase” value in data set [2] is given as “no significant effect”.

By IC50 is commonly meant the point on the concentration scale where inhibition reaches its midpoint.
